Results taken from patent US20150072416A1, “METABOLITE FOR IMPROVING PRODUCTION, MAINTENANCE AND PROLIFERATION OF PLURIPOTENT STEM CELLS, COMPOSITION COMPRISING THE SAME, AND METHOD OF CULTURING PLURIPOTENT STEM CELL USING THE SAME” (KOREA RESEARCH INSTITUTE OF BIOSCIENCE AND BIOTENOLOGY, priority 2012, published 2015).

Test system: embryonic stem cells
Assay: Embryonic stem cells treated with NAD+ synthesis inhibitor FK866 and NAD precursors (NAD level, AP activity, apoptosis)
Format: cell-based, human
Procedure: Embryonic stem cells were treated with nicotinamide and related compounds, and after 6 days, protein was isolated from the cells. NAD cycling enzyme was added to and reacted with 20 μg of the protein per each group at room temperature for 5 minutes, and then a NADH developer was added and reacted therewith for 2-3 hours. The absorbance at 450 nm was measured using a microplate reader, and the amount of the […] was quantified.
AP staining was performed using a commercial AP kit (Sigma) according to the manufacturer's instruction. Images of AP-positive cells were recorded with HP Scanjet G4010. Also, bight field images were obtained with an Olympus microscope (IX51, Olympus, Japan).
In order to examine the effect of nicotinamide on a reduction in the apoptosis of human pluripotent stem cells, dual apoptosis assay (Biotium, Hayward, Calif.) was performed. Embryonic stem cells or cells reprogrammed were stained with NucView™488 Caspase-3 Substrate (green)/Annextin V (red) at room temperature for 30 minutes, followed by washing with PBS. At least 4 sections of each sample were imaged with an Olympus fluorescence microscope (IX51, Olympus), and the number of cells stained with green (Caspase-3) was counted to quantify the degree of apoptosis.

SMILES | recovery from damage caused by FK866 (co-treatment with FK866, also in mTeSR1-CDM) | apoptosis (treated with FK866) | concentration of NAD in the cells (treated with FK866) | state of the embryonic stem cells (treated with FK866)
O=C(O)c1cccnc1 [nicotinic acid] | recovered |  |  | 
O=C(/C=C/c1cccnc1)NCCCCC1CCN(C(=O)c2ccccc2)CC1 [FK866] |  | induced | decreased | differentiated
